According to patent US4550186A, “Binuclear copper (II) carboxylates formed from amine-carboxyboranes” (Duke University, priority 1983, dated 1985):

Tests used:
[1] = test system: protein synthesis of Ehrlich ascites cells; test: In vivo leucine incorporation into protein; set-up: species or system mouse
Protocol: CF1 male mice (~30 g) were implanted with 2×10^6 Ehrlich ascites tumor cells, intraperitoneally on Day 0. Compound I was suspended by homogenation in 0.05% polysorbate.80-water and administered intraperitoneally at 10 and 20 mg/kg for 9 days to determine its effectiveness for inhibition of tumor growth. Mice were sacrificed on Day 10, and the ascites fluid was collected from the peritoneal cavity. The volume and ascrit (packed cell volume) were determined for each animal and the percent inhibition of tumor growth was calculated. For the metabolic studies, mice were treated on Days 8 and 9 with 10 mg/kg of Compound I, intraperitoneally. The animal was sacrificed on Day 10 and the ascites fluid harvested. […]
For in vivo studies, incorporation of thymidine into deoxyribonucleic acid was determined by the method of Chae et al [Proc. Am. […] The deoxyribonucleic acid was isolated and the tritium content was determined in a toluene based scintillation fluid. The deoxyribonucleic acid concentration was determined by the diphenylamine reaction using calf thymus deoxyribonucleic acid as a standard. Uridine incorporation into ribonucleic acid was determined using 10 μCi of 5,6-^3 H-uridine (22.4 Ci/mmol). […] Leucine incorporation into protein was determined by the method of Sartorelli [Biochem. Biophys. […] Protein content was determined by the Lowry procedure using bovine serum albumin as a standard.

[2] = target: T1, ribosomal ribonucleic acid polymerase (Mus musculus, UniProt O35134+P70700); test: In vivo ribosomal ribonucleic acid polymerase activity
T1 construct: enzymes isolated from nuclei; endogenous in cells; host or cells: Ehrlich ascites tumor cell nuclei, ammonium sulfate fraction
T1 sequence (P52432 whole entry): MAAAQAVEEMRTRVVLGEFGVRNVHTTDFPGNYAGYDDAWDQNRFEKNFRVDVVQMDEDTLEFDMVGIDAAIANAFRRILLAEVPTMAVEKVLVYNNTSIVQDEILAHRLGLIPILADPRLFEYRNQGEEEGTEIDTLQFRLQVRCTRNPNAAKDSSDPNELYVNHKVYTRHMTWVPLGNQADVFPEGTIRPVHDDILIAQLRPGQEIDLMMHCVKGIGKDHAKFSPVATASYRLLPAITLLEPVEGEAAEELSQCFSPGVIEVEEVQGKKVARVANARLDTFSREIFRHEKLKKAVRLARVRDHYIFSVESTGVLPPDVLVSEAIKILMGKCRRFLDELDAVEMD
T1 sequence (Q791N7 whole entry, further chain): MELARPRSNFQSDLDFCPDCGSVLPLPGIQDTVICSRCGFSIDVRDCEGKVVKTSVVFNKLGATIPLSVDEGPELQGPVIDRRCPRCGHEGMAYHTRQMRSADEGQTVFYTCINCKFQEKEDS
T1 sequence (P97304 whole entry, further chain): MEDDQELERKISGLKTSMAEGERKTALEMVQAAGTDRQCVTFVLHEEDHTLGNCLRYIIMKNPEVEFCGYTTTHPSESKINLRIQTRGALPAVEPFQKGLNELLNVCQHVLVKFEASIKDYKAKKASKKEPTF
T1 sequence (Q78WZ7 whole entry, further chain): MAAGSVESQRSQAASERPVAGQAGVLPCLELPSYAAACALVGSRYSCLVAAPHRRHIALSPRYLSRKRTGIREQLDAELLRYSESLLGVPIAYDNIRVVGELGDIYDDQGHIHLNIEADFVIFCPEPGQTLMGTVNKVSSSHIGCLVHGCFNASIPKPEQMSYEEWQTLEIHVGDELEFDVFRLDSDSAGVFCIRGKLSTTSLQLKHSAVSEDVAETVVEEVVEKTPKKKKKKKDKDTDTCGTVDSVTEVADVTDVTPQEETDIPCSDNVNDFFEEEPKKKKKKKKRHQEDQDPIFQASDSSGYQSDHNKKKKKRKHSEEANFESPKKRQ
T1 sequence (P70700 whole entry): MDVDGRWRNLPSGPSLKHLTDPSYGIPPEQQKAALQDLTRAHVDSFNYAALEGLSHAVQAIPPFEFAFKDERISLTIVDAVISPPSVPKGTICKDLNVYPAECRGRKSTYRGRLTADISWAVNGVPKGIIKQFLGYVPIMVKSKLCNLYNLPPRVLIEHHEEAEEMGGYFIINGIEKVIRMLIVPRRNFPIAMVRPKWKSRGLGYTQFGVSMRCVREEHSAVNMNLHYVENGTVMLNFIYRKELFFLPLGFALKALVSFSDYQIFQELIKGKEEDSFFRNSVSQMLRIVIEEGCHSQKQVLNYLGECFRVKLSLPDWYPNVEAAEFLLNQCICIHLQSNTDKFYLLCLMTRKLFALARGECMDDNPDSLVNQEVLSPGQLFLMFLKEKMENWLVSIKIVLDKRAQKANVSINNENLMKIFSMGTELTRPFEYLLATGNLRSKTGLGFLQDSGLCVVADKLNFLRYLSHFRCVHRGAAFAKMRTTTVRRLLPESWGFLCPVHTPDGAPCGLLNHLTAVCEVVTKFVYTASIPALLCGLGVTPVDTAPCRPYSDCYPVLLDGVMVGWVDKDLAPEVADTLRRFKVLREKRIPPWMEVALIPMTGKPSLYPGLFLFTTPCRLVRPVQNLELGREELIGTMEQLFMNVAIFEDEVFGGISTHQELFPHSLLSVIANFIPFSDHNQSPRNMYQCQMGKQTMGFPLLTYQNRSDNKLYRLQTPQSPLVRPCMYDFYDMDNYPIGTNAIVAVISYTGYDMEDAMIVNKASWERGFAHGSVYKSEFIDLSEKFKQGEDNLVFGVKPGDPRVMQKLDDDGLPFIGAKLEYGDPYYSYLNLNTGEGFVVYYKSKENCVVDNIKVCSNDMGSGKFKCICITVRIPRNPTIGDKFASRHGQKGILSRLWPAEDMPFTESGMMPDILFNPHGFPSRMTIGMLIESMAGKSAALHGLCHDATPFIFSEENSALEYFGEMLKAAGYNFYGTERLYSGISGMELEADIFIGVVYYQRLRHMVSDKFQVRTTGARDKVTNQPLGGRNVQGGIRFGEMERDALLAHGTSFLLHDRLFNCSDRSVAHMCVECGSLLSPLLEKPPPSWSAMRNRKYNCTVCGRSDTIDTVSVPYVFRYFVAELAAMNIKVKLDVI
T1 sequence (O35134 whole entry): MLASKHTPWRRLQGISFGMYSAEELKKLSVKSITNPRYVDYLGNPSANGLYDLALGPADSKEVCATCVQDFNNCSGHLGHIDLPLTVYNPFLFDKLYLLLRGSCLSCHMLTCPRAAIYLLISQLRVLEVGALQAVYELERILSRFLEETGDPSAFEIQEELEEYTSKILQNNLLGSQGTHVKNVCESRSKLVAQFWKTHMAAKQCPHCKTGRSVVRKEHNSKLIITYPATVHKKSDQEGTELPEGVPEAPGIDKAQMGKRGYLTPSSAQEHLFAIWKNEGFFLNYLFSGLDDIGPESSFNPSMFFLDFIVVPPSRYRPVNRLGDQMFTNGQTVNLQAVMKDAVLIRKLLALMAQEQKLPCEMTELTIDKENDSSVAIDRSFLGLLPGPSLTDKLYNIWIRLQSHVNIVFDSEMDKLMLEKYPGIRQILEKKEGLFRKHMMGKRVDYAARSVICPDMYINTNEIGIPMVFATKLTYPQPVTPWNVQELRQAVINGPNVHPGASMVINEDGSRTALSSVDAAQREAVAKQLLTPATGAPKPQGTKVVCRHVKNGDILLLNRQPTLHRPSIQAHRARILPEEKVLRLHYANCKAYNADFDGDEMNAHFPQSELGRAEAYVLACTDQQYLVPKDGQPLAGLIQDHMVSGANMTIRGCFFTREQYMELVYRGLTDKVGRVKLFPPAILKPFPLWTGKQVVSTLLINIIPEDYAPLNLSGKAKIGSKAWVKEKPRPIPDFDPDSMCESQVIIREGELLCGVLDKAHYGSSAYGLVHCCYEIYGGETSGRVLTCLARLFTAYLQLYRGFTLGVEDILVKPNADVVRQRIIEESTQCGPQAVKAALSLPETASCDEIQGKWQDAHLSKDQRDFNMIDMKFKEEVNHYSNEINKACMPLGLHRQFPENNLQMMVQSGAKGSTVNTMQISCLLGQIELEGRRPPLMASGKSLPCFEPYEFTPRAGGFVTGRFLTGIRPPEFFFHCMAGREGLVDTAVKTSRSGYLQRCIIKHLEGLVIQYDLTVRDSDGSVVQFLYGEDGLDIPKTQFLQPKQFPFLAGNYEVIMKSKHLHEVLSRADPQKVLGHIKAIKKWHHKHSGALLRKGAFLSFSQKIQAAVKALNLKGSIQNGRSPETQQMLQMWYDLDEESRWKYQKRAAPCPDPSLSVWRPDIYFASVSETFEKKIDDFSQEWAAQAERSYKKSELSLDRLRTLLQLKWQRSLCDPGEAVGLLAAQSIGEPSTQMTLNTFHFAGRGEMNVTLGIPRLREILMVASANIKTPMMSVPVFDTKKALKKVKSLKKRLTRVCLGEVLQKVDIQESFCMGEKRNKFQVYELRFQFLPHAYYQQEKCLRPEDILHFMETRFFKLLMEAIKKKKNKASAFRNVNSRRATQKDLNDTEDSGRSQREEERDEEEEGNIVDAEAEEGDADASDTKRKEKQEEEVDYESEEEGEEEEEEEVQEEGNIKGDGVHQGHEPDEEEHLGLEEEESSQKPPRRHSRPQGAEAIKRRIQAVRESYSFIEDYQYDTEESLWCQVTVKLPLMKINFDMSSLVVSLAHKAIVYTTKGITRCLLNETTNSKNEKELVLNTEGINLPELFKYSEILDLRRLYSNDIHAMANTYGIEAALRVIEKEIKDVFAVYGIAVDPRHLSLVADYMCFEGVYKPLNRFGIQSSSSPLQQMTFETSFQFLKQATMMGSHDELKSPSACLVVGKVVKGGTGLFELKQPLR
Protocol: CF1 male mice (~30 g) were implanted with 2×10^6 Ehrlich ascites tumor cells, intraperitoneally on Day 0. Compound I was suspended by homogenation in 0.05% polysorbate.80-water and administered intraperitoneally at 10 and 20 mg/kg for 9 days to determine its effectiveness for inhibition of tumor growth. Mice were sacrificed on Day 10, and the ascites fluid was collected from the peritoneal cavity. The volume and ascrit (packed cell volume) were determined for each animal and the percent inhibition of tumor growth was calculated. For the metabolic studies, mice were treated on Days 8 and 9 with 10 mg/kg of Compound I, intraperitoneally. The animal was sacrificed on Day 10 and the ascites fluid harvested. The in vitro metabolic studies were performed at […] final concentration of Compound I.
In vitro and in vivo nuclear deoxyribonucleic acid polymerase activity was determined on isolated Ehrlich ascites cell nuclei. The incubation was that described by Sawada et al [Can. Res., 34, 3341 (1974)] except that [methyl-^3 H] deoxythymidine triphosphate (82.4 Ci/mmol) was used. The acid insoluble nucleic acid was collected on GF/F filters and counted. Nuclear ribonucleic acid polymerase activities were determined on enzymes isolated from nuclei. […] The acid insoluble ribonucleic acid was collected on nitrocellulose filters and counted.

[3] = 10 mg/kg/day I.P. on Days 8 and 9

In the case of “{Cu[(CH3)3 N.BH2 CO2 ]2.(CH3)3 N.BH2 COOH} [Compound I]”, the “3H-Leucine incorporation into protein” value [1, 3] is reported as 48 ± 6 % Control, the “Leucine incorporation into protein inhibited” value ([1]; 10 day Ehrlich ascites cells) is reported as 52% and the “ribosomal ribonucleic acid polymerase activity” value [2] is reported as “not affected”. For the same substance, the “Ribosmoal ribonucleic acid polymerase activity” value [2, 3] was 96 ± 11 % Control.
